Results on 6 compounds are retold here after patent EP0326331B1, “Substituted quinolines and cinnolines” (Dow AgroSciences LLC, priority 1988, dated 1989).

Holding throughout (type): in vivo
The test system of assay [1] is Twospotted spider mites (Tetranychus urticae Koch). Briefly: Mite/insect screen, SM. The settings on record: Tetranychus urticae, foliar, percent mortality, foliar spray on squash, read-out: SM RESULTS %; for mortality at 400 ppm: rate 400 ppm. In a few lines:
(§1)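 Foliar spray to runoff (10 psi), 1 h drying; aqueous dilutions from acetone/alcohol emulsifier stock. Mortality (%) after standard exposure.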

A further assay concerns corn rootworm. As to the kind of experiment: Mite/insect screen, CRW. The note with it: percent mortality, read-out: CRW RESULTS %; for mortality at 24 ppm: CRW rate 24.00 ppm. In a few lines:
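Following dissolution in equal parts acetone and alcohol with 23 g/L and 13 g/L emulsifier blends and dilution with water, test solutions were scored for percent mortality at the end of standard exposures.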

The test system of assay [2] is Erysiphe graminis tritici (powdery mildew). As to the kind of experiment: Test 1 greenhouse foliar spray screen, powdery mildew on wheat. The note with it: Blumeria graminis, foliar, Test 1, foliar spray on wheat; disease control rating at 400 ppm / 100 ppm; read-out: POWD MDEW.
Assay [3] relates to southern armyworm (Spodopetra eridania Cramer). As to the kind of experiment: Mite/insect screen, SAW. The note with it: Spodoptera eridania, foliar, percent mortality, foliar spray on squash, read-out: SAW RESULTS %; for mortality at 400 ppm: rate 400 ppm. In a few lines:
as §1

For assay [4], the system named is Botrytis cinerea (gray mold). As to the kind of experiment: Test 1 greenhouse foliar spray screen, gray mold on grape berries. The settings on record: Botrytis cinerea, foliar; Test 1, spray on grape berries; disease control rating at 400 ppm / 100 ppm.
Assay [5] relates to Puccinia recondita tritici (leaf rust). Briefly: Test 1 greenhouse foliar spray screen, leaf rust on wheat. The settings on record: Puccinia recondita, foliar, Test 1, foliar spray on wheat; disease control rating at 400 ppm / 100 ppm.
In assay [6] the test system is melon aphids (Aphis gossypii Glover). As to the kind of experiment: Mite/insect screen, MA. The note with it: Aphis gossypii, foliar, percent mortality, foliar spray on squash, read-out: MA RESULTS %; for mortality at 400 ppm: rate 400 ppm. The gist of the method: as §1
The subject of assay [7] is Pseudoperonospora cubensis (downy mildew). As to the kind of experiment: Test 1 greenhouse foliar spray screen, downy mildew on squash. The settings on record: Pseudoperonospora cubensis, foliar, Test 1, foliar spray on squash; disease control rating at 400 ppm / 100 ppm; read-out: DOWN MDEW.
Assay [8] deals with Pyricularia oryzae (rice blast). Briefly: whole plant or invertebrate. The note with it: Pyricularia oryzae, foliar, read-out: RICE BLAST, Test 1, foliar spray on rice; disease control rating at 400 ppm / 100 ppm.

With `Fc1ccc(CCOc2ccnc3c(Cl)cccc23)cc1` [Example 240, 8-chloro-4-[2-(4-fluorophenyl)ethoxy]quinoline], the mortality at 400 ppm in assay [1], in assay [3] and in [6] was 0% throughout. The mortality at 24 ppm in the assay with corn rootworm was determined as 0%. The pest or weed control at 400 ppm was 0 to 19% in assay [2]; 0 to 19% in assay [4]; 90 to 100% in assay [5]; 0 to 19% in assay [7]; 20 to 89% in assay [8].
As for `CC(C)(C)c1ccc(CCCOc2ccnc3c(F)cccc23)cc1` [Example 241, 8-fluoro-4-[3-[4-(t-butyl)phenyl]propoxy]quinoline], the mortality at 400 ppm in [1], in [3] and in assay [6] was 0% throughout. Further, in the assay with corn rootworm, the mortality at 24 ppm was found to be 0%. The pest or weed control at 400 ppm in [2], in assay [4], in [5], in assay [7] and in assay [8] was 0 to 19% in each case.
In the case of `Clc1ccc(CCCOc2ccnc3c(Cl)cccc23)cc1` [Example 242, 8-chloro-4-[3-(4-chlorophenyl)propoxy]quinoline], the mortality at 200 ppm in assay [1] (rate 200 ppm), in assay [3] (rate 200 ppm) and in assay [6] (rate 200 ppm) was 0% in each case. The mortality at 400 ppm in [1], in assay [3] and in assay [6] was 0% in each case. Further, the mortality at 12 ppm with corn rootworm (CRW rate 12.00 ppm) worked out at 0%. In addition, the mortality at 24 ppm in the assay on corn rootworm stood at 0%. Moreover, the pest or weed control at 400 ppm in assay [2], in assay [4], in assay [5], in [7] and in assay [8] was 0 to 19% each time.
As for `Fc1cccc2c(OCC=Cc3ccccc3)ccnc12` [Example 243, 8-fluoro-4-[(3-phenyl-2-propenyl)oxy]quinoline], the mortality at 400 ppm in [1], in assay [3] and in [6] was 0% throughout. Also, the mortality at 24 ppm in the assay on corn rootworm was 0%. Further, the pest or weed control at 400 ppm in assay [2], in assay [4], in assay [5], in [7] and in assay [8] was 0 to 19% throughout.
`Cc1cc(OCCC2CCCCC2)c2c(Cl)ccc(C)c2n1` [Example 248, 5-chloro-4-(2-cyclohexylethoxy)-2,8-dimethylquinoline]: the mortality at 400 ppm in assay [1], in assay [3] and in [6] was 0% each time. In addition, in the assay with corn rootworm, the mortality at 24 ppm amounted to 0%. For the same compound, the pest or weed control at 400 ppm in assay [2] lay within 20 to 89%; in assay [4], 0 to 19%; in assay [5], 0 to 19%; in assay [7], 0 to 19%; in assay [8], 0 to 19%.
Take `Cc1cc(OCCC2CCCCC2)c2cc(F)ccc2n1` [Example 249, 6-fluoro-4-(2-cyclohexylethoxy)-2-methylquinoline]: the mortality at 400 ppm in assay [1], in [3] and in assay [6] was 0% throughout. Further, the mortality at 24 ppm in the assay on corn rootworm worked out at 0%. Further, the pest or weed control at 400 ppm in assay [2], in [4], in [5], in assay [7] and in assay [8] was 0 to 19% throughout.
